Results from article PMC3083694, “Effects of Intermediates between Vitamins K2 and K3 on Mammalian DNA Polymerase Inhibition and Anti-Inflammatory Activity” (International Journal of Molecular Sciences, 2011).

Key:
[1] = system: TPA-induced edema on mouse ear; test: TPA-induced mouse ear inflammatory test; assay type: in vivo; conditions: 250 or 500 μg applied to ear 30 min before TPA (0.5 μg); edema evaluated after 7 h; Figure 3
Procedure: All animal studies were performed according to the guidelines outlined in the “Care and Use of Laboratory Animals” of Kobe University. The animals were anesthetized with pentobarbital before undergoing cervical dislocation. Female 8-week-old C57BL/6 mice that had been bred in-house with free access to food and water were used for all experiments. All of the mice were maintained under a 12-h light/dark cycle and housed at a room temperature of 25 °C.
The mouse inflammatory test was performed according to Gschwendt’s method. In brief, an acetone solution of the VK2 and VK3 intermediates (250 or 500 μg in 20 μL) or 20 μL of acetone as a vehicle control was applied to the inner part of the mouse ear. Thirty minutes after the test compound was applied, a TPA solution (0.5 μg/20 μL of acetone) was applied to the same part of the ear. To the other ear of the same mouse, methanol, followed by TPA solution, was applied as a control. After 7 h, a disk (6 mm diameter) was obtained from the ear and weighed. The inhibitory effect (IE) is presented as a ratio of the increase in weight of the ear disks: IE=[(TPA only)−(tested compound plus TPA)]/[(TPA only)−(vehicle)]×100

[2] = system: LPS-induced production of TNF-α in RAW264.7 cells; test: LPS-induced TNF-α production in mouse macrophages (ELISA); assay type: cell-based; conditions: Figure 4; for Suppression of LPS-stimulated production of TNF-α: then 100 ng/mL LPS 24 h; for Inhibitory effect on LPS-stimulated TNF-α production: 10 and 50 μM tested, concentration not specified
Procedure: A mouse macrophage cell line, RAW264.7, was obtained from American Type Culture Collection (ATCC) (Manassas, VA, U.S.). The cells were cultured in Eagle’s Minimum Essential Medium (MEM) supplemented with 4.5 g of glucose per liter plus 10% fetal calf serum, 5 mM L-glutamine, 50 units/mL penicillin and 50 units/mL streptomycin. The cells were cultured at 37 °C in standard medium in a humidified atmosphere of 5% CO2–95% air.
RAW264.7 cells were placed in a 12-well plate at 5 × 10^4 cells/well and incubated for 24 h. The cells were pretreated with the VK2 and VK3 intermediates (final concentrations of 10 and 50 μM) for 30 min before the addition of 100 ng/mL of LPS. After stimulation with LPS for 24 h, the cell culture medium was collected to measure the amount of TNF-α secreted. The concentration of TNF-α in the culture medium was quantified by using a commercially available enzyme-linked immunosorbent assay (ELISA) development system (Bay Bioscience Co., Ltd., Kobe, Japan) in accordance with the manufacturer’s protocol.

[3] = target: T1, Human DNA polymerase λ (Homo sapiens, UniProt Q9UGP5); test: DNA polymerase activity assay, human pol λ; assay type: biochemical; conditions: for Inhibitory effect on human pol λ activity: 50 μM of each compound, Figure 2
T1 construct: made in house
T1 sequence (Q9UGP5 1-575): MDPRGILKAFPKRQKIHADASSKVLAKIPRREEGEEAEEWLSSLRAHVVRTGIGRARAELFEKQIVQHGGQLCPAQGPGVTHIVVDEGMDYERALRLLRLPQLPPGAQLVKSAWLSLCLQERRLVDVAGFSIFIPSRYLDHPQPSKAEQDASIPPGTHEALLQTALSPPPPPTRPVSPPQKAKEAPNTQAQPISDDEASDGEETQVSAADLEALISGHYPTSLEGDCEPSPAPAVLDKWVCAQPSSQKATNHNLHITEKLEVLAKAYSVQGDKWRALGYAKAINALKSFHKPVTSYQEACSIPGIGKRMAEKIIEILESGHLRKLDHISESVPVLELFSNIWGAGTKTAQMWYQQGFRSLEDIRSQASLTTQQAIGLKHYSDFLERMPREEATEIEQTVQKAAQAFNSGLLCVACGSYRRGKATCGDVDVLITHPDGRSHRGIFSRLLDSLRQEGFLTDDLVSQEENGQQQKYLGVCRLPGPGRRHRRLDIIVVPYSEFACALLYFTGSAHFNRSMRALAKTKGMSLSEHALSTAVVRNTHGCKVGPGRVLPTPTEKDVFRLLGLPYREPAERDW
Procedure: Pols from mammals, a fish (cherry salmon), an insect (fruit fly) and a plant (cauliflower) were purified, and prokaryotic pols and other DNA metabolic enzymes, such as T7 RNA polymerase, T4 polynucleotide kinase and bovine deoxyribonuclease I, were purchased as described in our previous report. The activities of all pols and other DNA metabolic enzymes were measured as described in previous reports.
The components of the pol assay were poly(dA)/oligo(dT)18 and dTTP as the DNA template-primer and 2′-deoxyribonucleoside 5′-triphosphate (dNTP) substrate, respectively. VK2, VK3, and their synthesized derivatives (i.e., MK-3, MK-2 and MK-1) were dissolved in dimethyl sulfoxide (DMSO) at various concentrations and sonicated for 30 s. The sonicated samples (4 μL) were mixed with 16 μL of each pol enzyme (final amount, 0.05 units) in 50 mM Tris-HCl (pH 7.5) containing 1 mM dithiothreitol, 50% glycerol and 0.1 mM EDTA, and kept at 0 °C for 10 min. These inhibitor–enzyme mixtures (8 μL) were added to 16 μL of each standard enzyme reaction mixture (50 mM Tris-HCl [pH 7.5], 1 mM dithiothreitol, 1 mM MgCl2, 15% glycerol, 10 μM poly(dA)/oligo(dT)18 and 10 μM [^3H]-dTTP), and incubation was carried out at 37 °C for 60 min, except for Taq pol, which was incubated at 74 °C for 60 min. Activity without the inhibitor was considered to be 100%, and the activity remaining at each concentration of inhibitor was determined relative to this value. One unit of pol activity was defined as the amount of enzyme that catalyzed the incorporation of 1 nmol dNTP (dTTP) into the synthetic DNA template-primer (poly(dA)/oligo(dT)18, A/T = 2/1) in 60 min at 37 °C under normal reaction conditions for each enzyme (scintillation counts: approximately 1 pmol of incorporated radioactive nucleotides = 100 cpm).

Row | Inhibitory effect on human pol λ activity [3] | Compound | Anti-inflammatory activity toward TPA-induced edema on mouse ear [1] | Suppression of LPS-stimulated production of TNF-α ([2]; 50 μM compound 30 min) | Suppression of LPS-stimulated production of TNF-α ([2]; 10 μM compound 30 min) | IC50 ([3]; X-family pol, read-out: IC50 Value of MK-2, Human DNA polymerase λ) [µM] | Inhibitory effect on LPS-stimulated TNF-α production [2]
1 | inhibited the activity | CC(C)=CCC1=C(C)C(=O)c2ccccc2C1=O [MK-1] | suppressed inflammation | significantly suppressed | – | – | –
2 | inhibited the activity | CC(C)=CCC/C(C)=C/CC/C(C)=C/CC1=C(C)C(=O)c2ccccc2C1=O [MK-3] | weak effect | – | – | – | moderate inhibitory effect
3 | had no effect on pol activity | CC(C)=CCC/C(C)=C/CC/C(C)=C/CC/C(C)=C/CC1=C(C)C(=O)c2ccccc2C1=O [MK-4, menaquinone 4, reference compound] | weak effect | – | – | – | moderate inhibitory effect

Row | Compound | Inhibitory effect on human pol λ activity [3] | Anti-inflammatory activity toward TPA-induced edema on mouse ear [1] | Suppression of LPS-stimulated production of TNF-α ([2]; 50 μM compound 30 min) | Suppression of LPS-stimulated production of TNF-α ([2]; 10 μM compound 30 min) | IC50 ([3]; X-family pol, read-out: IC50 Value of MK-2, Human DNA polymerase λ) [µM] | Inhibitory effect on LPS-stimulated TNF-α production [2]
4 | CC(C)=CCC/C(C)=C/CC1=C(C)C(=O)c2ccccc2C1=O [MK-2] | inhibited the activity | suppressed inflammation | significantly suppressed | significantly suppressed | 24.6 ± 1.4 | –
